One data set has as its system BGC-823. Put plainly: Antiproliferative activity against human BGC-823 cells assessed as inhibition of cell proliferation incubated for 72 hrs by MTT assay. The class given is functional, cell-based. Conditions: BGC-823, 72 h.
The next data set deals with SGC-7901. Put plainly: Antiproliferative activity against human SGC-7901 cells assessed as inhibition of cell proliferation incubated for 72 hrs by MTT assay. The class given is functional, cell-based. Particulars: SGC-7901, 72 h.
A further data set concerns U-251. In words: Antiproliferative activity against human U-251 cells assessed as inhibition of cell proliferation incubated for 72 hrs by MTT assay. The class given is functional, cell-based. Particulars: U-251, 72 h.
The subject of a further data set is HepG2. In words: Antiproliferative activity against human HepG2 cells assessed as inhibition of cell proliferation incubated for 72 hrs by MTT assay. The format is functional, cell-based. Conditions: HepG2, 72 h.
The subject of a further data set is B16-F10. Put plainly: Antiproliferative activity against mouse B16-F10 cells assessed as inhibition of cell proliferation incubated for 72 hrs by MTT assay. The class given is functional, cell-based. Particulars: B16-F10, 72 h.
The test system of data set [1] is HGC-27. In words: Antiproliferative activity against human HGC-27 cells assessed as inhibition of cell proliferation incubated for 72 hrs by MTT assay. The class given is functional, cell-based. Conditions: HGC-27, 72 h.
Data set [2] has as its system AGS. Put plainly: Antiproliferative activity against human AGS cells assessed as inhibition of cell proliferation incubated for 72 hrs by MTT assay. The format is functional, cell-based.
The next data set relates to A549. In words: Antiproliferative activity against human A549 cells assessed as inhibition of cell proliferation incubated for 72 hrs by MTT assay. The class given is functional, cell-based. Particulars: A549, 72 h.
The test system of another data set is HCT-116. In words: Antiproliferative activity against human HCT-116 cells assessed as inhibition of cell proliferation incubated for 72 hrs by MTT assay. The format is functional, cell-based. Particulars: HCT-116, 72 h.
Another data set has as its system MCF7. In words: Antiproliferative activity against human MCF7 cells assessed as inhibition of cell proliferation incubated for 72 hrs by MTT assay. The format is functional, cell-based. Conditions: MCF7, 72 h.
Data set [3] can be described thus: Antiproliferative activity against human LO2 cells assessed as inhibition of cell proliferation incubated for 72 hrs by MTT assay. The class given is toxicity, cell-based, L02.
A short description of data set [4]: Selectivity index, ratio of IC50 for antiproliferative activity against human LO2 cells to IC50 for antiproliferative activity against human AGS cells. Particulars: LO2 cells and AGS cells, read-out: Ratio IC50. The class given is cell-based.
The nature of data set [5]: Selectivity index, ratio of IC50 for antiproliferative activity against human LO2 cells to IC50 for antiproliferative activity against human HGC-27 cells. The format is toxicity, cell-based. Particulars: LO2 cells and HGC-27 cells, read-out: Ratio IC50.
Data set [6] relates to AGS. Put plainly: Induction of apoptosis in human AGS cells assessed as necrotic cells at 0.1 uM incubated for 48 hrs by annexin V-FITC and PI staining based flow cytometry analysis (reference value: 0.44%). The class given is functional.
Data set [7] in a line: Acute toxicity in male ICR mouse assessed as appearance of bright cytoplasm at 2 mg/kg, ip measured after 7 days by H and E staining based light microscopic analysis. The class given is organism-based. Particulars: in vivo, 168 h, time 7 day.
Data set [8] can be described thus: Toxicity in male ICR mouse assessed as animal death at 2 mg/kg, ip measured after 4 days. The format is organism-based. Particulars: in vivo, 96 h, time 4 day.
Data set [9] can be described thus: Acute toxicity in male ICR mouse assessed as appearance of unclear cell boundaries at 2 mg/kg, ip measured after 7 days by H and E staining based light microscopic analysis. The format is organism-based. Particulars: in vivo, 168 h, time 7 day.
Data set [10] concerns HGC-27. Put plainly: Induction of apoptosis in human HGC-27 cells assessed as late apoptotic cells at 0.1 uM incubated for 48 hrs by annexin V-FITC and PI staining based flow cytometry analysis (reference value: 5.02%). The class given is functional.
The subject of data set [11] is AGS. Put plainly: Induction of apoptosis in human AGS cells assessed as viable cells at 0.1 uM incubated for 48 hrs by annexin V-FITC and PI staining based flow cytometry analysis (reference value: 92.0%). The class given is functional. Conditions: read-out: Activity.
Data set [12] has as its system HGC-27. Put plainly: Induction of apoptosis in human HGC-27 cells assessed as necrotic cells at 0.1 uM incubated for 48 hrs by annexin V-FITC and PI staining based flow cytometry analysis (reference value: 0.062%). The class given is functional.
Data set [13] in a line: Acute toxicity in male ICR mouse assessed as enlarged hepatocyte volume at 2 mg/kg, ip measured after 7 days by H and E staining based light microscopic analysis. The class given is organism-based. Conditions: in vivo, 168 h, time 7 day.
Data set [14] relates to AGS. In words: Induction of apoptosis in human AGS cells assessed as early apoptotic cells at 0.1 uM incubated for 48 hrs by annexin V-FITC and PI staining based flow cytometry analysis (reference value: 4.44%). The format is functional.
Data set [15] concerns HGC-27. Put plainly: Induction of autophagy in human HGC-27 cells assessed as increase in LC3 II/LC3 I ratio in tumor tissue at 25 to 100 mg/kg, ip administered daily. The format is functional, organism-based. Conditions: dose 25-100 mg/kg.
Data set [16] relates to HGC-27. In words: Induction of apoptosis in human HGC-27 cells assessed as viable cells at 0.1 uM incubated for 48 hrs by annexin V-FITC and PI staining based flow cytometry analysis (reference value: 91.8%). The format is functional. Particulars: read-out: Activity.
Data set [17] concerns AGS. In words: Induction of apoptosis in human AGS cells assessed as late apoptotic cells at 0.1 uM incubated for 48 hrs by annexin V-FITC and PI staining based flow cytometry analysis (reference value: 3.15%). The format is functional.
Data set [18] can be described thus: Acute toxicity in male ICR mouse assessed as abnormal hepatocyte morphology at 2 mg/kg, ip measured after 7 days by H and E staining based light microscopic analysis. The class given is organism-based. Conditions: in vivo, 168 h, time 7 day.
Data set [19] concerns HGC-27. Put plainly: Antitumor activity against human HGC-27 cells xenografted in male BALB/c nude mouse assessed as tumor growth inhibition at 0.5 mg/kg, ip administered every day for 15 days relative to control. The class given is functional. Conditions: HGC-27, 360 h, time 15 day, read-out: TGI.
Data set [20] concerns HGC-27. Put plainly: Induction of apoptosis in human HGC-27 cells assessed as early apoptotic cells at 0.1 uM incubated for 48 hrs by annexin V-FITC and PI staining based flow cytometry analysis (reference value: 3.13%). The format is functional.
Data set [21] in a line: Toxicity in male ICR mouse assessed as body weight loss at 2 mg/kg, ip measured after 4 days. The class given is organism-based. Conditions: in vivo, 96 h, time 4 day.
The nature of data set [22]: Acute toxicity in male ICR mouse assessed as appearance of empty cytoplasm at 2 mg/kg, ip measured after 7 days by H and E staining based light microscopic analysis. The format is organism-based. Particulars: in vivo, 168 h, time 7 day.

Calls of active or inactive are those of the source. No cut-off for these calls is given here. Bounds are passed on as bounds.

With `CC(C)[C@]12O[C@H]1[C@@H]1O[C@@]13[C@@]1(C)CCC4=C(COC4=O)[C@@H]1C[C@@H]1O[C@@]13C2=O` [TRIPTONIDE], the IC50 in the data set with BGC-823 worked out at 90 nM; in the data set on SGC-7901, 110 nM; in the data set with U-251, 20 nM; with HepG2, 50 nM; in the data set on B16-F10 it was 20 nM; in the data set with HGC-27 [1], 100 nM. The IC50 was found to be 50 nM in the data set with AGS [2], 460 nM with A549, 130 nM in the data set on HCT-116 and 50 nM in the data set with MCF7.

Turning to `CC(C)[C@]12O[C@H]1[C@@H]1O[C@@]13[C@@]1(C)CCC4=C(COC4=S)[C@@H]1C[C@@H]1O[C@@]13C2=O`, the half-inhibitory concentration (IC50) at 72 h in data set [3] was 3350 nM. Besides, the IC50 is 1330 nM in the data set with BGC-823; 1880 nM with SGC-7901; 2430 nM with U-251; 630 nM in the data set with HepG2; 1030 nM with B16-F10; 620 nM in the data set on HGC-27 [1]. Besides, the half-maximal inhibitory concentration (IC50) with AGS [2] is 1030 nM; in the data set on A549, more than 10000 nM; in the data set with HCT-116, 520 nM; in the data set on MCF7, 1790 nM. In addition, the values for the selectivity ratio in data set [4] and in data set [5] were 3.26 and 5.43, respectively.

As to `CC(C)[C@]12O[C@H]1[C@@H]1O[C@]13[C@]1(O[C@H]1C[C@H]1C4=C(CC[C@@]13C)C(=S)OC4)[C@H]2O`, in [3], the IC50 at 72 h worked out at 6910 nM. The IC50 with BGC-823 was 3660 nM; with SGC-7901, 4830 nM; with U-251, 6320 nM; in the data set with HepG2 it was 1870 nM; with B16-F10 it was 1460 nM; in the data set with HGC-27 [1], 700 nM. For the same compound, the IC50 was 2580 nM in the data set with AGS [2], more than 10000 nM in the data set on A549, 1340 nM in the data set with HCT-116 and 3040 nM in the data set on MCF7. Besides, the selectivity ratio was 2.68 in data set [4] and 12.2 in data set [5].

`CC(C)[C@]12O[C@H]1[C@@H]1O[C@]13[C@]1(O[C@H]1C[C@H]1C4=C(CC[C@@]13C)C(=S)O[C@H]4O)[C@H]2O`: the IC50 in the data set on BGC-823, with SGC-7901, in the data set with U-251, with HepG2, in the data set on B16-F10 and with HGC-27 [1] was more than 10000 nM each time. Further, the IC50 in the data set with AGS [2], in the data set with A549, in the data set on HCT-116 and in the data set with MCF7 was more than 10000 nM in each case.

Turning to `CC(C)[C@]12O[C@H]1[C@@H]1O[C@]13[C@]1(O[C@H]1C[C@H]1C4=C(CC[C@@]13C)C(=O)OC4)[C@@H]2O` [TRIPTOLIDE], the IC50 at 72 h in [3] was determined as 40 nM. Further, the Activity with AGS [6] was 1.65%; in data set [7], “Toxic”; in [8], “Toxic”; in [9], “Toxic”; in the data set with HGC-27 [10], 17.4%; in the data set on HGC-27 [12], 0.16%. Also, the Activity entry was “Toxic” in [13]; 50.5% with AGS [14]; 37.9% in the data set on AGS [17]; “Toxic” in data set [18]; 34% with HGC-27 [20]; “Toxic” in [21]. In [22], the Activity result is “Toxic”. For the same compound, the IC50 in the data set with BGC-823 came to 60 nM; with SGC-7901, 40 nM; in the data set on U-251, 20 nM; in the data set on HepG2, 60 nM; in the data set on B16-F10, 3 nM; with HGC-27 [1], 20 nM. Besides, the IC50 amounted to 40 nM in the data set on AGS [2], 40 nM with A549, 10 nM in the data set with HCT-116 and 70 nM in the data set on MCF7. Moreover, the results for the viability at 0.1 µM in the data set with AGS [11] and with HGC-27 [16] were 10% and 48.5%, respectively. Moreover, the selectivity ratio in [4] amounted to 1.08; in data set [5], 1.89. In addition, in the data set on HGC-27 [15], the result was inactive. Further, the inhibition in vivo at 0.5 mg/kg in the data set with HGC-27 [19] turned out to be 97.2%.

With `CC(C)[C@]12O[C@H]1[C@@H]1O[C@@]13[C@@]1(C)CCC4=C([C@H](O)OC4=S)[C@@H]1C[C@@H]1O[C@@]13C2=O`, the IC50 in the data set on BGC-823, with SGC-7901, in the data set on U-251, in the data set on HepG2, in the data set on B16-F10 and in the data set on HGC-27 [1] was more than 10000 nM throughout. Also, the IC50 in the data set with AGS [2] was more than 10000 nM; with A549, more than 10000 nM; in the data set with HCT-116, 8530 nM; with MCF7 it was more than 10000 nM.

`CC(C)[C@]12O[C@H]1[C@@H]1O[C@]13[C@]1(O[C@H]1C[C@H]1C4=C(CC[C@@]13C)C(=S)O[C@H]4O)[C@@H]2O`: the IC50 in the data set on BGC-823, in the data set with SGC-7901, with U-251, with HepG2, in the data set with B16-F10 and in the data set with HGC-27 [1] was more than 10000 nM throughout. The IC50 in the data set with AGS [2] is more than 10000 nM; in the data set on A549, more than 10000 nM; with HCT-116 it was 5590 nM; in the data set with MCF7, more than 10000 nM.

(Values after ChEMBL document CHEMBL6114967, “Design and synthesis of novel sulfur-substituted triptolide with the ability to induce autophagy through inhibition of SRSF1 expression” (Eur J Med Chem, 2025).)
